Experiments:
Format in all cases: in vivo
[1] = test system: velvetleaf (Abutilon theophrasti, ABUTH); test: Pre-emerge test, greenhouse herbicide activity screening; conditions: for Pre-emerge Herbicidal Activity ABUTH (phytotoxicity rating, scale 0-100): rated 14 days after application, 0 = no damage, 100 = complete death
In short: (§1)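 Compounds in acetone were track-sprayed at 15-1000 g ai/ha (187 l/ha) on sandy loam pots: pre-emerge one day after seeding, post-emerge at 2-3 leaf stage with 0.25% v/v non-ionic surfactant. Phytotoxicity was rated 14 days later on a 0 (no damage) to 100 (complete death) scale.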

[2] = test system: johnsongrass (Sorghum halepense, SORHA); test: as above; conditions: for Pre-emerge Herbicidal Activity SORHA (phytotoxicity rating, scale 0-100): rated 14 days after application, 0 = no damage, 100 = complete death
In short: as §1

[3] = test system: lambsquarters (Chenopodium album, CHEAL); test: as above; conditions: for Pre-emerge Herbicidal Activity CHEAL (phytotoxicity rating, scale 0-100): rated 14 days after application, 0 = no damage, 100 = complete death
In short: as §1

[4] = test system: green foxtail (Setaria viridis, SETVI); test: as above; conditions: for Pre-emerge Herbicidal Activity SETVI (phytotoxicity rating, scale 0-100): rated 14 days after application, 0 = no damage, 100 = complete death
In short: as §1

[5] = test system: common ragweed (Ambrosia artemisizfolia L., AMBEL); test: as above; conditions: for Pre-emerge Herbicidal Activity AMBEL (phytotoxicity rating, scale 0-100): rated 14 days after application, 0 = no damage, 100 = complete death; for Pre-emerge Herbicidal Activity AMBEL: phytotoxicity rating 0-100, 14 days after application
In short: as §1

[6] = test system: common ragweed (Ambrosia artemisizfolia L., AMBEL); test: Post-emerge test, greenhouse herbicide activity screening; conditions: phytotoxicity rating 0-100 (0 no damage, 100 complete death), 14 days after application
In short: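 Applied at 15–1000 g ai/ha from acetone in 187 l/ha spray volume. Post-emergence applications included 0.25% v/v non-ionic surfactant and reached plants sown 8–21 days before. Pre-emergence applications were incorporated by surface watering. Efficacy or crop damage was rated on a 0–100 scale after 14 days.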

[7] = test system: redroot pigweed (Amaranthus retroflexus, AMARE); test: Pre-emerge test, greenhouse herbicide activity screening; conditions: for Pre-emerge Herbicidal Activity AMARE (phytotoxicity rating, scale 0-100): rated 14 days after application, 0 = no damage, 100 = complete death
In short: as §1

Row | SMILES | Pre-emerge Herbicidal Activity ABUTH (phytotoxicity rating, scale 0-100) ([1]; 63 g ai/ha) | Pre-emerge Herbicidal Activity ABUTH (phytotoxicity rating, scale 0-100) ([1]; 250 g ai/ha) | Pre-emerge Herbicidal Activity SORHA (phytotoxicity rating, scale 0-100) ([2]; 63 g ai/ha) | Pre-emerge Herbicidal Activity SORHA (phytotoxicity rating, scale 0-100) ([2]; 250 g ai/ha) | Pre-emerge Herbicidal Activity CHEAL (phytotoxicity rating, scale 0-100) ([3]; 63 g ai/ha) | Pre-emerge Herbicidal Activity CHEAL (phytotoxicity rating, scale 0-100) ([3]; 250 g ai/ha) | Pre-emerge Herbicidal Activity SETVI (phytotoxicity rating, scale 0-100) ([4]; 63 g ai/ha) | Pre-emerge Herbicidal Activity SETVI (phytotoxicity rating, scale 0-100) ([4]; 250 g ai/ha) | Pre-emerge Herbicidal Activity AMBEL (phytotoxicity rating, scale 0-100) ([5]; 63 g ai/ha) | Pre-emerge Herbicidal Activity AMBEL (phytotoxicity rating, scale 0-100) ([5]; 250 g ai/ha) | Post-emerge Herbicidal Activity AMBEL ([6]; 63 g ai/ha) | Post-emerge Herbicidal Activity AMBEL ([6]; 250 g ai/ha) | Pre-emerge Herbicidal Activity AMARE (phytotoxicity rating, scale 0-100) ([7]; 63 g ai/ha) | Pre-emerge Herbicidal Activity AMARE (phytotoxicity rating, scale 0-100) ([7]; 250 g ai/ha) | also measured
1 | COc1c(Cl)cc(F)c(-n2c(=O)cc(C(F)(F)F)n(C)c2=O)c1[N+](=O)[O-] [Compound 1-5, 3-(4-chloro-6-fluoro-3-methoxy-2-nitrophenyl)-1-methyl-6-trifluoromethyl-2,4(1H, 3H)-pyrimidinedione] | 30 | 100 | 0 | 20 | 60 | 100 | 0 | 90 | 0 | 20 | 0 | 30 | 20 | 95 | –
2 | Cn1c(C(F)(F)F)cc(=O)n(-c2c(F)cc(Cl)c(O)c2N)c1=O [Compound 1-16, 3-(2-amino-4-chloro-6-fluoro-3-hydroxyphenyl)-1-methyl-6-trifluoromethyl-2,4(1H, 3H)-pyrimidinedione] | 0 | 0 | 0 | 0 | 0 | 70 | 0 | 0 | 0 | 0 | 0 | 0 | 0 | 0 | –
3 | COc1c(Cl)cc(F)c(-n2c(=O)cc(C(F)(F)F)n(C)c2=O)c1N(C(C)=O)C(C)=O [Compound 2-2, 3-(4-chloro-2-diacetylamino-6-fluoro-3-methoxyphenyl)-1-methyl-6-trifluoromethyl-2,4(1H, 3H)-pyrimidinedione] | 100 | 100 | 60 | 90 | 100 | 100 | 90 | 100 | 40 | 100 | 0 | 70 | 100 | 100 | –
4 | COc1c(Cl)cc(F)c(-n2c(=O)cc(C(F)(F)F)n(C)c2=O)c1NC(N)=O [Compound 3-26, 3-(2-aminocarbonylamino-4-chloro-6-fluoro-3-methoxyphenyl)-1-methyl-6-trifluoromethyl-2,4(1H, 3H)-pyrimidinedione] | – | – | – | – | – | – | – | – | – | – | – | – | – | – | pest or weed control at 63 g/ha ([1]; Abutilon theophrasti, pre-emergence, 336 h, 63 g ai/ha, phytotoxicity rating 0-100, 14 days after application, read-out: Pre-emerge Herbicidal Activity ABUTH): 75%; pest or weed control at 250 g/ha ([1]; Abutilon theophrasti, pre-emergence, 336 h, 250 g ai/ha, phytotoxicity rating 0-100, 14 days after application, read-out: Pre-emerge Herbicidal Activity ABUTH): 100%; pest or weed control at 63 g/ha ([2]; Sorghum halepense, pre-emergence, 336 h, 63 g ai/ha, phytotoxicity rating 0-100, 14 days after application, read-out: Pre-emerge Herbicidal Activity SORHA): 0%; pest or weed control at 250 g/ha ([2]; Sorghum halepense, pre-emergence, 336 h, 250 g ai/ha, phytotoxicity rating 0-100, 14 days after application, read-out: Pre-emerge Herbicidal Activity SORHA): 50%; pest or weed control at 63 g/ha ([3]; Chenopodium album, pre-emergence, 336 h, 63 g ai/ha, phytotoxicity rating 0-100, 14 days after application, read-out: Pre-emerge Herbicidal Activity CHEAL): 80%; pest or weed control at 250 g/ha ([3]; Chenopodium album, pre-emergence, 336 h, 250 g ai/ha, phytotoxicity rating 0-100, 14 days after application, read-out: Pre-emerge Herbicidal Activity CHEAL): 90%; pest or weed control at 63 g/ha ([4]; Setaria viridis, pre-emergence, 336 h, 63 g ai/ha, phytotoxicity rating 0-100, 14 days after application, read-out: Pre-emerge Herbicidal Activity SETVI): 0%; pest or weed control at 250 g/ha ([4]; Setaria viridis, pre-emergence, 336 h, 250 g ai/ha, phytotoxicity rating 0-100, 14 days after application, read-out: Pre-emerge Herbicidal Activity SETVI): 85%; Pre-emerge Herbicidal Activity AMBEL ([5]; 63 g ai/ha): 10; Pre-emerge Herbicidal Activity AMBEL ([5]; 250 g ai/ha): 90; pest or weed control at 63 g/ha ([7]; Amaranthus retroflexus, pre-emergence, 336 h, 63 g ai/ha, phytotoxicity rating 0-100, 14 days after application, read-out: Pre-emerge Herbicidal Activity AMARE): 80%; pest or weed control at 250 g/ha ([7]; Amaranthus retroflexus, pre-emergence, 336 h, 250 g ai/ha, phytotoxicity rating 0-100, 14 days after application, read-out: Pre-emerge Herbicidal Activity AMARE): 100%

Reference: patent US6355799B1, “Substituted benzene compounds, process for their preparation, and herbicidal and defoliant compositions containing them” (ISK Americas Incorporated, priority 1997, dated 2002)
